Key:
Type in all cases: functional
[1] = system: A549; test: Cytotoxicity against human A549 cells; details: read-out: ED50 (the source's name)
[2] = system: HT-29; test: Cytotoxicity against human HT-29 cells; details: read-out: ED50 (the source's name)
[3] = Cytotoxicity against human FDIGROV cells; details: read-out: ED50 (the source's name)
[4] = system: UMUC3; test: Cytotoxicity against human UM-UC-3 cells; details: read-out: ED50 (the source's name)
[5] = system: MIA PaCa-2; test: Cytotoxicity against human MIAPaCa2 cells; details: read-out: ED50 (the source's name)
[6] = Cytotoxicity against human A4982LM cells; details: read-out: ED50 (the source's name)
[7] = Cytotoxicity against human MDA231 cells; details: MDA-MB-231, read-out: ED50 (the source's name)
[8] = system: PC-3; test: Cytotoxicity against human PC3 cells; details: read-out: ED50 (the source's name)

SMILES	EC50 [1] [µg/mL]	EC50 [2] [µg/mL]	EC50 [3] [µg/mL]	EC50 [4] [µg/mL]	EC50 [5] [µg/mL]	EC50 [6] [µg/mL]	EC50 [7] [µg/mL]	EC50 [8] [µg/mL]
Cc1c(C)[n+](Cc2ccccc2)cn1Cc1ccccc1.[Cl-] [LEPIDILINE A]	> 10	> 10	7.39	> 10	> 10	> 10	> 10	> 10
Cc1c(C)[n+](Cc2ccccc2)c(C)n1Cc1ccccc1.[Cl-] [LEPIDILINE B]	> 10	> 10	5.26	6.47	1.38	> 10	1.66	> 10
